From patent US20060252807A1, “Novel ortho-terphenyl inhibitors of p38 kinase and methods of treating inflammatory disorders” (Kalypsys, Inc., priority 2005, published 2006) come the findings set out here.

Broadly, the IC50 is the midpoint of a concentration-inhibition curve.

The assay addresses T1, active p38 alpha enzyme (Upstate Biotechnology) (Homo sapiens, UniProt Q16539).
T1 construct: purchased Upstate Biotechnology
Kind of assay: p38α biochemical assay (ATP turnover, luminescent detection, Cambrex PKlight). Particulars: p38α biochemical assay, Table 1 Biological Activity. A digest of the protocol: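 Compounds in DMSO are added to active p38 alpha with MapkapK2 whole protein and ATP at 1.4 uM final. Reactions then run for 2 hours at 30C. A luminescent reagent is added last to quantify total ATP consumed.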

T1 sequence (Q16539 whole entry): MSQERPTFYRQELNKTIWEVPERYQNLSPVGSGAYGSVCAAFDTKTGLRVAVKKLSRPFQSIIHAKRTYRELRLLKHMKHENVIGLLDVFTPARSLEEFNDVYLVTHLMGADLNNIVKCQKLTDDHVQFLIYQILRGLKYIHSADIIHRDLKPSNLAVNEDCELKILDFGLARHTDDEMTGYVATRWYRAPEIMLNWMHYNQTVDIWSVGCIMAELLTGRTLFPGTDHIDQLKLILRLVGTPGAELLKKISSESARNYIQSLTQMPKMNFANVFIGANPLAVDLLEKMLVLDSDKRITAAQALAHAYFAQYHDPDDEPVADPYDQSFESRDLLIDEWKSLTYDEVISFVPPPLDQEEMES

Consider `CC(C)NC(=O)c1csc(-c2oc(CNC(=O)c3ccc(Cl)c(Br)c3)nc2-c2ccc(F)cc2)n1` [Example 321], for which the IC50 is over 1000 nM.
As to `CC(C)NC(=O)c1csc(-c2oc(CNC(=O)c3ccccc3C(=O)c3ccc(O)cc3)nc2-c2ccc(F)cc2)n1` [Example 322], the IC50 is at most 1000 nM.
In turn, `CC(C)NC(=O)c1csc(-c2oc(CNC(=O)c3ccccc3C(=O)c3ccc(F)cc3)nc2-c2ccc(F)cc2)n1` [Example 323] returned an IC50 of over 1000 nM.
The molecule `CC(C)NC(=O)c1csc(-c2oc(CNC(=O)C(C)c3ccc(-c4ccccc4)c(F)c3)nc2-c2ccc(F)cc2)n1` (stereo not shown) [Example 324] had an IC50 of over 1000 nM.
On to `CC(C)NC(=O)c1csc(-c2oc(CNC(=O)C3CCCN3C(=O)OCc3ccccc3)nc2-c2ccc(F)cc2)n1` (stereo not shown) [Example 327], for which the 50% inhibitory concentration (IC50) is over 1000 nM.
For the molecule `CCC(C)C(NC(=O)OC(C)(C)C)C(=O)NCc1nc(-c2ccc(F)cc2)c(-c2nc(C(=O)NC(C)C)cs2)o1` (stereo not shown) [Example 328], the IC50 is over 1000 nM.
With `CC(C)CC(NC(=O)OC(C)(C)C)C(=O)NCc1nc(-c2ccc(F)cc2)c(-c2nc(C(=O)NC(C)C)cs2)o1` (stereo not shown) [Example 329], the IC50 was over 1000 nM.
Under `CC(C)NC(=O)c1csc(-c2oc(CNC(=O)C(C)c3cccc(C(=O)c4ccccc4)c3)nc2-c2ccc(F)cc2)n1` (stereo not shown) [Example 330] stands over 1000 nM; under `CC(C)NC(=O)c1csc(-c2oc(CNC(=O)C(Cc3ccccc3)NC(=O)OC(C)(C)C)nc2-c2ccc(F)cc2)n1` (stereo not shown) [Example 331], at most 1000 nM; under `CC(C)NC(=O)c1csc(-c2oc(CNC(=O)C(Cc3ccccn3)NC(=O)OC(C)(C)C)nc2-c2ccc(F)cc2)n1` (stereo not shown) [Example 332], over 1000 nM.
Consider `CC(C)NC(=O)c1csc(-c2oc(CNC(=O)C3Cc4ccccc4CN3C(=O)OC(C)(C)C)nc2-c2ccc(F)cc2)n1` (stereo not shown) [Example 333], for which the IC50 is over 1000 nM.
The molecule `CC(C)NC(=O)c1csc(-c2oc(CNC(=O)C(Cc3ccc(O)cc3)NC(=O)OC(C)(C)C)nc2-c2ccc(F)cc2)n1` (stereo not shown) [Example 334] registered a concentration for half-maximal inhibition (IC50) of at most 1000 nM.
`CC(=O)N1CCN(Cc2nc(-c3ccc(F)cc3)c(-c3nc(C(=O)NC(C)C)cs3)o2)CC1` [Example 335] returned an IC50 of at most 1000 nM.
In turn, `CC(C)NC(=O)c1csc(-c2oc(CN3CCN(C(=O)C=O)CC3)nc2-c2ccc(F)cc2)n1` [Example 336] yielded an IC50 of at most 1000 nM.
Under `CC(C)NC(=O)c1csc(-c2oc(CN3CCN(C(=O)CC#N)CC3)nc2-c2ccc(F)cc2)n1` [Example 337] stands at most 1000 nM; under `CC(C)NC(=O)c1csc(-c2oc(CN3CCN(C(=O)C(C)O)CC3)nc2-c2ccc(F)cc2)n1` (stereo not shown) [Example 338], over 1000 nM; under `CCC(=O)C(=O)N1CCN(Cc2nc(-c3ccc(F)cc3)c(-c3nc(C(=O)NC(C)C)cs3)o2)CC1` [Example 339], over 1000 nM.
Under `CC(C)NC(=O)c1csc(-c2oc(CN3CCN(C(=O)C(C)(C)C)CC3)nc2-c2ccc(F)cc2)n1` [Example 340] stands at most 1000 nM; under `CC(C)CC(=O)N1CCN(Cc2nc(-c3ccc(F)cc3)c(-c3nc(C(=O)NC(C)C)cs3)o2)CC1` [Example 341], over 1000 nM; under `CC(C)NC(=O)c1csc(-c2oc(CN3CCN(C(=O)c4cnc[nH]4)CC3)nc2-c2ccc(F)cc2)n1` [Example 342], at most 1000 nM.
Regarding `CC(C)NC(=O)c1csc(-c2oc(CN3CCN(C(=O)c4ncc[nH]4)CC3)nc2-c2ccc(F)cc2)n1` [Example 343], the IC50 is at most 1000 nM.
`CC(C)NC(=O)c1csc(-c2oc(CN3CCN(C(=O)C4=CCCC4)CC3)nc2-c2ccc(F)cc2)n1` [Example 344] displayed an IC50 of over 1000 nM.
On to `CC(C)NC(=O)c1csc(-c2oc(CN3CCN(C(=O)C(F)(F)F)CC3)nc2-c2ccc(F)cc2)n1` [Example 345], for which the IC50 was at most 1000 nM.
Under `CC(C)NC(=O)c1csc(-c2oc(CN3CCN(C(=O)C4CCCO4)CC3)nc2-c2ccc(F)cc2)n1` (stereo not shown) [Example 346] stands over 1000 nM; under `CC(=O)NCC(=O)N1CCN(Cc2nc(-c3ccc(F)cc3)c(-c3nc(C(=O)NC(C)C)cs3)o2)CC1` [Example 347], over 1000 nM; under `CC(C)NC(=O)c1csc(-c2oc(CN3CCN(C(=O)c4ccccc4)CC3)nc2-c2ccc(F)cc2)n1` [Example 348], over 1000 nM.
Under `CC(C)NC(=O)c1csc(-c2oc(CN3CCN(C(=O)c4cccnc4)CC3)nc2-c2ccc(F)cc2)n1` [Example 349] stands over 1000 nM; under `CC(C)NC(=O)c1csc(-c2oc(CN3CCN(C(=O)c4ccncc4)CC3)nc2-c2ccc(F)cc2)n1` [Example 350], at most 1000 nM.
Under `CC(C)NC(=O)c1csc(-c2oc(CN3CCN(C(=O)c4ccccn4)CC3)nc2-c2ccc(F)cc2)n1` [Example 351] stands over 1000 nM; under `CC(C)NC(=O)c1csc(-c2oc(CN3CCN(C(=O)C(O)CCl)CC3)nc2-c2ccc(F)cc2)n1` (stereo not shown) [Example 352], over 1000 nM; under `Cc1cc(C(=O)N2CCN(Cc3nc(-c4ccc(F)cc4)c(-c4nc(C(=O)NC(C)C)cs4)o3)CC2)n[nH]1` [Example 353], at most 1000 nM.
As for `CC(C)NC(=O)c1csc(-c2oc(CN3CCN(C(=O)c4cn(C)cn4)CC3)nc2-c2ccc(F)cc2)n1` [Example 354], the IC50 is at most 1000 nM.
Under `CC(C)NC(=O)c1csc(-c2oc(CN3CCN(C(=O)C4CCCCC4)CC3)nc2-c2ccc(F)cc2)n1` [Example 355] stands at most 1000 nM.
`CC(C)NC(=O)c1csc(-c2oc(CN3CCN(C(=O)c4cscn4)CC3)nc2-c2ccc(F)cc2)n1` [Example 356] returned an IC50 of at most 1000 nM.
As for `CCOC(=O)CC(=O)N1CCN(Cc2nc(-c3ccc(F)cc3)c(-c3nc(C(=O)NC(C)C)cs3)o2)CC1` [Example 357], the IC50 was at most 1000 nM.
Consider `Cc1cccc(C(=O)N2CCN(Cc3nc(-c4ccc(F)cc4)c(-c4nc(C(=O)NC(C)C)cs4)o3)CC2)c1` [Example 358], for which the IC50 was over 1000 nM.
The molecule `Cc1ccccc1C(=O)N1CCN(Cc2nc(-c3ccc(F)cc3)c(-c3nc(C(=O)NC(C)C)cs3)o2)CC1` [Example 359] gave an IC50 of over 1000 nM.
Under `Cc1ccc(C(=O)N2CCN(Cc3nc(-c4ccc(F)cc4)c(-c4nc(C(=O)NC(C)C)cs4)o3)CC2)cc1` [Example 360] stands over 1000 nM; under `CC(C)NC(=O)c1csc(-c2oc(CN3CCN(C(=O)c4cccc(O)c4)CC3)nc2-c2ccc(F)cc2)n1` [Example 361], over 1000 nM.
Under `CC(C)NC(=O)c1csc(-c2oc(CN3CCN(C(=O)c4ccccc4O)CC3)nc2-c2ccc(F)cc2)n1` [Example 362] stands at most 1000 nM; under `CC(C)NC(=O)c1csc(-c2oc(CN3CCN(C(=O)c4ccc(F)cc4)CC3)nc2-c2ccc(F)cc2)n1` [Example 363], over 1000 nM.
For the molecule `CC(C)NC(=O)c1csc(-c2oc(CN3CCN(C(=O)c4cccc(F)c4)CC3)nc2-c2ccc(F)cc2)n1` [Example 364], the half-maximal inhibitory concentration (IC50) was over 1000 nM.
Molecule `CCCCCCCC(=O)N1CCN(Cc2nc(-c3ccc(F)cc3)c(-c3nc(C(=O)NC(C)C)cs3)o2)CC1` [Example 365] showed an IC50 of over 1000 nM.
In the case of `CC(C)NC(=O)c1csc(-c2oc(CN3CCN(C(=O)c4ccc(C#N)cc4)CC3)nc2-c2ccc(F)cc2)n1` [Example 366], the IC50 is over 1000 nM.
The molecule `CC(C)NC(=O)c1csc(-c2oc(CN3CCN(C(=O)c4cccc(C#N)c4)CC3)nc2-c2ccc(F)cc2)n1` [Example 367] yielded an IC50 of over 1000 nM.
Under `CC(C)NC(=O)c1csc(-c2oc(CN3CCN(C(=O)/C=C/c4ccccc4)CC3)nc2-c2ccc(F)cc2)n1` [Example 368] stands over 1000 nM; under `CC(C)NC(=O)c1csc(-c2oc(CN3CCN(C(=O)c4ccccc4C=O)CC3)nc2-c2ccc(F)cc2)n1` [Example 369], at most 1000 nM.
Consider `CC(C)NC(=O)c1csc(-c2oc(CN3CCN(C(=O)c4ccc(C=O)cc4)CC3)nc2-c2ccc(F)cc2)n1` [Example 370], for which the IC50 is over 1000 nM.
`Cc1ccc(C(=O)N2CCN(Cc3nc(-c4ccc(F)cc4)c(-c4nc(C(=O)NC(C)C)cs4)o3)CC2)c(C)c1` [Example 371] had an IC50 of at most 1000 nM.
Under `Cc1ccccc1CC(=O)N1CCN(Cc2nc(-c3ccc(F)cc3)c(-c3nc(C(=O)NC(C)C)cs3)o2)CC1` [Example 372] stands over 1000 nM.
Molecule `Cc1cccc(C(=O)N2CCN(Cc3nc(-c4ccc(F)cc4)c(-c4nc(C(=O)NC(C)C)cs4)o3)CC2)c1C` [Example 373] showed an IC50 of over 1000 nM.
In turn, `Cc1ccc(C)c(C(=O)N2CCN(Cc3nc(-c4ccc(F)cc4)c(-c4nc(C(=O)NC(C)C)cs4)o3)CC2)c1` [Example 374] had an IC50 of over 1000 nM.
In turn, `Cc1cc(C)cc(C(=O)N2CCN(Cc3nc(-c4ccc(F)cc4)c(-c4nc(C(=O)NC(C)C)cs4)o3)CC2)c1` [Example 375] displayed an IC50 of over 1000 nM.
`Cc1ccc(C(=O)N2CCN(Cc3nc(-c4ccc(F)cc4)c(-c4nc(C(=O)NC(C)C)cs4)o3)CC2)cc1C` [Example 376] returned a half-inhibitory concentration (IC50) of over 1000 nM.
The molecule `CCc1ccc(C(=O)N2CCN(Cc3nc(-c4ccc(F)cc4)c(-c4nc(C(=O)NC(C)C)cs4)o3)CC2)cc1` [Example 377] had a 50% inhibitory concentration (IC50) of over 1000 nM.
Under `COc1ccc(C(=O)N2CCN(Cc3nc(-c4ccc(F)cc4)c(-c4nc(C(=O)NC(C)C)cs4)o3)CC2)cc1` [Example 378] stands over 1000 nM; under `Cc1cccc(C(=O)N2CCN(Cc3nc(-c4ccc(F)cc4)c(-c4nc(C(=O)NC(C)C)cs4)o3)CC2)c1O` [Example 379], at most 1000 nM.
As for `CC(C)NC(=O)c1csc(-c2oc(CN3CCN(C(=O)Cc4ccccc4O)CC3)nc2-c2ccc(F)cc2)n1` [Example 380], the IC50 is at most 1000 nM.
Regarding `CC(C)NC(=O)c1csc(-c2oc(CN3CCN(C(=O)Cc4cccc(O)c4)CC3)nc2-c2ccc(F)cc2)n1` [Example 381], the IC50 is at most 1000 nM.
For the molecule `Cc1ccc(O)c(C(=O)N2CCN(Cc3nc(-c4ccc(F)cc4)c(-c4nc(C(=O)NC(C)C)cs4)o3)CC2)c1` [Example 382], the IC50 was at most 1000 nM.
`CC(C)NC(=O)c1csc(-c2oc(CN3CCN(C(=O)c4cc(O)ccc4O)CC3)nc2-c2ccc(F)cc2)n1` [Example 383] yielded an IC50 of at most 1000 nM.
